Entries after “also recorded” stand apart in the source; their conditions may differ.
Assays:
pro-caspase-1 = assay: Inhibition of Caspase1 activation in bone marrow derived macrophages (Western Blot); type: cell-based, mouse; conditions: 10 μM; BMDMs, LPS 100 ng/ml 3 hours, nigericin 10 μM 90 minutes
TNFα = assay: LPS/ATP challenge model in C57BL/6 mice, TNFα in peritoneal lavage; type: in vivo; conditions: 3.5 hours post dose
Method: (§1) The purpose of this study was to determine the effects of Compounds 1 and 2 treatment on cytokine production after LPS/ATP injection in female C57BL/6 mice.
(§2) On Day −1 mice were weighed and assigned to groups per Table 2 (see below) in a balanced manner to achieve similar average weight across the groups at the start of the study.
(§3) All mice received a single dose of treatment or vehicle, at hour minus 1.
(§4) At hour 0, all mice received 1 μg of lipopolysaccharide, ultra pure (LPS, InvivoGen, San Diego, Calif.) in 0.5 ml PBS, intraperitoneally.
(§5) At hour 2 (two hours after LPS injection), all mice were injected intraperitoneally with 0.5 ml of 80 mM ATP disodium salt (Sigma, pH adjusted to 7.2 before injection).
(§6) At hour 2.5 (30 minutes after ATP injection and 3.5 hours after compound dosing), blood from all mice was collected via retro-orbital bleeding into K2 EDTA tubes and plasma was prepared and stored at […]. Samples were shipped to the customer or vendor of customers choosing within 7 days of completing the study.
(§7) Immediately after the collection of blood, each mouse was euthanized, the peritoneal cavity was lavaged with 3 ml of ice-cold PBS containing 25 U/ml heparin sodium salt, cocktail of protease inhibitors (Complete™ ULTRA Tablets, Sigma, Roche), and 10% FBS. Approximately 1 ml of the lavage was collected, spun down to remove cells and the supernatant stored at −80° C.
(§8) Compound powders were stored at 4° C. All compounds were prepared fresh. Compounds were weighed out and first ground with a mortar and pestle, then ground with a small amount of vehicle. The mortar was then repeatedly rinsed with vehicle to remove all material and achieve the correct concentration. The final solution was vortexed to create a homogeneous mixture
(§9) Mouse IL-1β and TNFα concentrations in peritoneal lavage samples were determined using Becton Dickinson (Franklin Lakes, N.J.) CBA analysis kit, according to manufacturer's protocol. A single analysis was performed on each sample.
(§10) Concentrations of cytokines were compared using Student t-test.

IL-1β = assay: LPS/ATP challenge model in C57BL/6 mice, IL-1β in peritoneal lavage; type: in vivo; conditions: 3.5 hours post dose
Method: as §1, §2, §3, §4, §5, §6, §7, §8, §9, §10

Row | SMILES | activation of pro-caspase-1 (p45 and p10 bands, Western Blot) (pro-caspase-1) | % Decrease of TNFα vs. Vehicle (TNFα; single oral dose 0.25 mg/kg) [%] | Mean (TNFα) (TNFα; single oral dose 0.25 mg/kg) [pg/mL] | % Decrease of TNFα vs. Vehicle (TNFα; single oral dose 1 mg/kg) [%] | Mean (TNFα) (TNFα; single oral dose 1 mg/kg) [pg/mL] | % Decrease of TNFα vs. Vehicle (TNFα; single oral dose 2.5 mg/kg) [%] | Mean (TNFα) (TNFα; single oral dose 2.5 mg/kg) [pg/mL] | Mean (IL-1β) (IL-1β; single oral dose 0.25 mg/kg) [pg/mL] | % Decrease of IL-1β vs. Vehicle (IL-1β; single oral dose 0.25 mg/kg, 0.25 mg/kg) [%] | Mean (IL-1β) (IL-1β; single oral dose 1 mg/kg) [pg/mL] | % Decrease of IL-1β vs. Vehicle (IL-1β; single oral dose 1 mg/kg, 1 mg/kg) [%] | Mean (IL-1β) (IL-1β; single oral dose 2.5 mg/kg) [pg/mL] | % Decrease of IL-1β vs. Vehicle (IL-1β; single oral dose 2.5 mg/kg, 2.5 mg/kg) [%]
1 | O=C(Nc1c2c(cc3c1CCC3)CCC2)NS(=O)(=O)c1cnn2c1CCCC2 [Compound 4, N-((1,2,3,5,6,7-hexahydro-s-indacen-4-yl)carbamoyl)-4,5,6,7-tetrahydropyrazolo[1,5-a]pyridine-3-sulfonamide] | blocked; also recorded: inhibition of activation |  |  |  |  |  |  |  |  |  |  |  | 
2 | CS(=O)(=O)NC(=O)Nc1c2c(cc3c1CCC3)CCC2 [Compound 2, N-((1,2,3,5,6,7-hexahydro-s-indacen-4-yl)carbamoyl)methanesulfonamide] | blocked; also recorded: inhibition of activation | −12.5 | 384.7 | −15.5 | 394.9 | −218 | 416.6 | 392.7 | 71.0 | 12.9 | 99.0 | 10.7 | 99.2
